Key:
Settings in all cases: banded MIC grade
C. tropicalis = experiment: Minimum inhibitory concentration, RPMI medium; assay type: cell-based
Method: (§1) The compound was dissolved in DMSO to give a solution containing 5 mg/mL. Tubes were stored at −20° C. until required. On the day of testing thawed solutions were vortex mixed to ensure homogeneity. 30 μL of solution was removed and added to 570 μL of sterile water in a separate sterile Eppendorf. The thoroughly mixed solution was used to prepare a series of doubling dilutions in water, in a deep well plate. Thirteen replicate plates were prepared using a Minitrak by aspirating 20 μL from each well into eleven clear polystyrene 96 well plates. Assays were also performed in RPMI medium (Roswell Park Memorial Media 1640). To perform MIC tests in this medium, dilutions of compounds are prepared in microtitre plates as described above. […] All plates were incubated for 24-48 hrs at 35° C. Growth was assessed by monitoring the optical density at 485 nm for each well. […] The following organisms were tested: […]

C. albicans = experiment: Minimum inhibitory concentration, RPMI medium; assay type: cell-based
Method: as §1

C. parapsilosis = experiment: Minimum inhibitory concentration, RPMI medium; assay type: cell-based
Method: as §1

A. terreus 49 = experiment: Minimum inhibitory concentration, YAG medium; assay type: cell-based, Aspergillus terreus
Method: (§2) The compound was dissolved in DMSO to give a solution containing 5 mg/mL. Tubes were stored at −20° C. until required. On the day of testing thawed solutions were vortex mixed to ensure homogeneity. 30 μL of solution was removed and added to 570 μL of sterile water in a separate sterile Eppendorf. The thoroughly mixed solution was used to prepare a series of doubling dilutions in water, in a deep well plate. Thirteen replicate plates were prepared using a Minitrak by aspirating 20 μL from each well into eleven clear polystyrene 96 well plates. Spores of Aspergillus spp. […] All plates were incubated for 24 hrs at 35° C. Growth was assessed by monitoring the optical density at 485 nm for each well. […] MICs are recorded as mg/L.

Aspergillus fumigatus = experiment: Minimum inhibitory concentration, YAG medium; assay type: cell-based
Method: (§3) Between 1 and 5 mgs of compound were accurately weighed out into a sterile Eppendorf tube. The compound was dissolved in DMSO to give a solution containing 5 mg/mL. Tubes were stored at −20° C. until required.
(§4) On the day of testing thawed solutions were vortex mixed to ensure homogeneity. 30 μL of solution was removed and added to 570 μL of sterile water in a separate sterile Eppendorf. The thoroughly mixed solution was used to prepare a series of doubling dilutions in water, in a deep well plate. Thirteen replicate plates were prepared using a Minitrak by aspirating 20 μL from each well into eleven clear polystyrene 96 well plates.
(§5) Spores of Aspergillus spp. (Aspergillus fumigatus [two strains], Aspergillus terreus [two strains], Aspergillus niger and Aspergillus flavus) were harvested from cultures grown on Sabarauds agar for 5 days, and resuspended in PBS/Tween 80 to approx 1×10^7 cfu/mL. Each organism suspension was diluted in YAG medium (1% glucose, 1% ammonium chloride and 0.5% yeast extract) to 0.5-2×10^4cfu/mL. 80 μL of an organism suspension was added to each well of the plate containing drug dilutions.
(§6) This typically produced MIC plates with a drug range 50-0.05 mg/L and organism inocula of 1-2×10^4 cfu/mL for Aspergillus spp. All plates were incubated for 24 hrs at 35° C. Growth was assessed by monitoring the optical density at 485 nm for each well. The MIC of a compound is the lowest drug concentration that inhibits growth of an organism by >70% compared with a drug free control. MICs are recorded as mg/L. In cases where the MIC of an organism is […] the MIC is repeated using a concentration range of 0.5-0.0005 mg/L.

A. fumigatus 210 = experiment: Minimum inhibitory concentration, YAG medium; assay type: cell-based, Aspergillus fumigatus
Method: as §3, §4, §5, §6

Aspergillus niger = experiment: Minimum inhibitory concentration, YAG medium; assay type: cell-based
Method: as §2

Aspergillus terreus = experiment: Minimum inhibitory concentration, YAG medium; assay type: cell-based
Method: as §2

Aspergillus flavus = experiment: Minimum inhibitory concentration, YAG medium; assay type: cell-based
Method: as §2

| Compound | MIC grade, C. TROPICALIS, RPMI media (C. tropicalis) | MIC grade, C. ALBICANS, RPMI media (C. albicans) | MIC grade, C. PARAPSILOSIS, RPMI media (C. parapsilosis) | MIC grade, A. TERREUS 49, YAG media (A. terreus 49) | MIC grade, A. FUMIGATUS, YAG media (Aspergillus fumigatus) | MIC grade, A. FUMIGATUS 210, YAG media (A. fumigatus 210) | MIC grade, A. NIGER, YAG media (Aspergillus niger) | MIC grade, A. TERREUS, YAG media (Aspergillus terreus) | MIC grade, A. FLAVUS, YAG media (Aspergillus flavus) |
| --- | --- | --- | --- | --- | --- | --- | --- | --- | --- |
| N#Cc1ccc(COCCC2=NN=C(N)SC2)cc1 | 1 (1: ≥20 mg/L) | 2 (2: 5-20 mg/L) | 2 (2: 5-20 mg/L) | 4 (4: <0.2 mg/L) | 4 (4: <0.2 mg/L) | 4 (4: <0.2 mg/L) | 4 (4: <0.2 mg/L) | 4 (4: <0.2 mg/L) | 3 (3: 0.2-1 mg/L) |
| CCCC(C)OCCC1=NN=C(N)SC1 (stereo not drawn) | 1 (1: ≥20 mg/L) | 2 (2: 5-20 mg/L) | 3 (3: 1-5 mg/L) | 2 (2: 1-5 mg/L) | 2 (2: 1-5 mg/L) | 3 (3: 0.2-1 mg/L) | 4 (4: <0.2 mg/L) | 3 (3: 0.2-1 mg/L) | 2 (2: 1-5 mg/L) |
| Cc1ccc(OCCC2=NN=C(N)SC2)cc1 | 2 (2: 5-20 mg/L) | 1 (1: ≥20 mg/L) | 4 (4: <1 mg/L) | 3 (3: 0.2-1 mg/L) | 3 (3: 0.2-1 mg/L) | 4 (4: <0.2 mg/L) | 3 (3: 0.2-1 mg/L) | 3 (3: 0.2-1 mg/L) | 3 (3: 0.2-1 mg/L) |
| NC1=NN=C(CCOc2ccc(-c3ccccc3)cc2)CS1 | 1 (1: ≥20 mg/L) | 1 (1: ≥20 mg/L) | 1 (1: ≥20 mg/L) | 2 (2: 1-5 mg/L) | 1 (1: ≥5 mg/L) | 1 (1: ≥5 mg/L) | 2 (2: 1-5 mg/L) | 2 (2: 1-5 mg/L) | 2 (2: 1-5 mg/L) |
| CCCOc1ccc(CCC2=NN=C(N)SC2)cc1 | 3 (3: 1-5 mg/L) | 4 (4: <1 mg/L) | 4 (4: <1 mg/L) | 4 (4: <0.2 mg/L) | 4 (4: <0.2 mg/L) | 4 (4: <0.2 mg/L) | 4 (4: <0.2 mg/L) | 4 (4: <0.2 mg/L) | 3 (3: 0.2-1 mg/L) |
| COc1ccc(COCCC2=NN=C(N)SC2)cc1 | 2 (2: 5-20 mg/L) | 2 (2: 5-20 mg/L) | 3 (3: 1-5 mg/L) | 3 (3: 0.2-1 mg/L) | 3 (3: 0.2-1 mg/L) | 3 (3: 0.2-1 mg/L) | 3 (3: 0.2-1 mg/L) | 3 (3: 0.2-1 mg/L) | 3 (3: 0.2-1 mg/L) |
| Cc1ccc(COCCC2=NN=C(N)SC2)cc1 | 2 (2: 5-20 mg/L) | 3 (3: 1-5 mg/L) | 3 (3: 1-5 mg/L) | 4 (4: <0.2 mg/L) | 4 (4: <0.2 mg/L) | 4 (4: <0.2 mg/L) | 4 (4: <0.2 mg/L) | 4 (4: <0.2 mg/L) | 3 (3: 0.2-1 mg/L) |
| NC1=NN=C(CCCCC(=O)Nc2ccccc2)CS1 | 1 (1: ≥20 mg/L) | 1 (1: ≥20 mg/L) | 2 (2: 5-20 mg/L) | 2 (2: 1-5 mg/L) | 3 (3: 0.2-1 mg/L) | 3 (3: 0.2-1 mg/L) | 2 (2: 1-5 mg/L) | 2 (2: 1-5 mg/L) | 3 (3: 0.2-1 mg/L) |
| NC1=NN=C(CCCOc2ccccc2)CS1 | 3 (3: 1-5 mg/L) | 2 (2: 5-20 mg/L) | 4 (4: <1 mg/L) | 3 (3: 0.2-1 mg/L) | 4 (4: <0.2 mg/L) | 4 (4: <0.2 mg/L) | 4 (4: <0.2 mg/L) | 4 (4: <0.2 mg/L) | 4 (4: <0.2 mg/L) |
| NC1=NN=C(CCCCOc2ccccc2)CS1 | 3 (3: 1-5 mg/L) | 4 (4: <1 mg/L) | 4 (4: <1 mg/L) | 4 (4: <0.2 mg/L) | 3 (3: 0.2-1 mg/L) | 3 (3: 0.2-1 mg/L) | 4 (4: <0.2 mg/L) | 4 (4: <0.2 mg/L) | 4 (4: <0.2 mg/L) |
| NC1=NN=C(CCCCCCOc2ccccc2)CS1 | 4 (4: <1 mg/L) | 3 (3: 1-5 mg/L) | 4 (4: <1 mg/L) | 4 (4: <0.2 mg/L) | 4 (4: <0.2 mg/L) | 4 (4: <0.2 mg/L) | 4 (4: <0.2 mg/L) | 4 (4: <0.2 mg/L) | 4 (4: <0.2 mg/L) |
| NC1=NN=C(CCCCCCc2ccccc2)CS1 | 3 (3: 1-5 mg/L) | 2 (2: 5-20 mg/L) | 4 (4: <1 mg/L) | 3 (3: 0.2-1 mg/L) | 4 (4: <0.2 mg/L) | 4 (4: <0.2 mg/L) | 4 (4: <0.2 mg/L) | 4 (4: <0.2 mg/L) | 4 (4: <0.2 mg/L) |
| COCC1=NN=C(N)SC1 | 2 (2: 5-20 mg/L) | 2 (2: 5-20 mg/L) | 2 (2: 5-20 mg/L) | 2 (2: 1-5 mg/L) | 2 (2: 1-5 mg/L) | 2 (2: 1-5 mg/L) | 2 (2: 1-5 mg/L) | 2 (2: 1-5 mg/L) | 2 (2: 1-5 mg/L) |
| NC1=NN=C(COc2ccccc2)CS1 | 2 (2: 5-20 mg/L) | 2 (2: 5-20 mg/L) | 4 (4: <1 mg/L) | 3 (3: 0.2-1 mg/L) | 4 (4: <0.2 mg/L) | 4 (4: <0.2 mg/L) | 3 (3: 0.2-1 mg/L) | 3 (3: 0.2-1 mg/L) | 4 (4: <0.2 mg/L) |
| CCOC(=O)CCCCCC1=NN=C(N)SC1 | 3 (3: 1-5 mg/L) | 4 (4: <1 mg/L) | 4 (4: <1 mg/L) | 4 (4: <0.2 mg/L) | 3 (3: 0.2-1 mg/L) | 4 (4: <0.2 mg/L) | 4 (4: <0.2 mg/L) | 4 (4: <0.2 mg/L) | 4 (4: <0.2 mg/L) |
